Assay results reported in ChEMBL document CHEMBL6074717, “Advancing mitochondrial therapeutics: Synthesis and pharmacological evaluation of pyrazole-based inhibitors targeting the mitochondrial pyruvate carrier” (Eur J Med Chem, 2025).
The source made the active and inactive calls. The calls are words filed in the database; no cut-off is given here.

Test system: LX-2
Assay: Inhibition of hepatic stellate cell activation in human LX-2 cells assessed as inhibition of TGF-beta-stimulated ACTA2 gene expression at 10 uM quantitative real-time PCR analysis
Type: functional, cell-based
Details: not given

Compound	inhibition
N#C/C(=C\c1c[nH]nc1-c1ccc2ccccc2c1)C(=O)O	Active
N#C/C(=C\c1c[nH]nc1-c1ccc(Cl)c(Cl)c1)C(=O)O	Active
N#C/C(=C\c1c[nH]nc1-c1cc(Br)cc(Br)c1)C(=O)O	Active

Test system: LX-2
Assay: Inhibition of hepatic stellate cell activation in human LX-2 cells assessed as inhibition of TGF-beta-stimulated […] gene expression at 10 uM quantitative real-time PCR analysis
Type: functional, cell-based
Details: not given

Compound	inhibition
N#C/C(=C\c1c[nH]nc1-c1ccc2ccccc2c1)C(=O)O	Active
N#C/C(=C\c1c[nH]nc1-c1ccc(Cl)c(Cl)c1)C(=O)O	Active

Test system: not listed separately
Assay: Kinetic solubility of the compound in PBS at pH 7.4 measured after 24 hrs by LC-MS/MS analysis
Type: physicochemical
Details: PBS, pH 7.4, read-out: Kinetic_solubility

solubility kinetic at 24 h	Compound
≥ 100 µM	N#C/C(=C\c1c[nH]nc1-c1ccc2ccccc2c1)C(=O)O
≥ 100 µM	N#C/C(=C\c1c[nH]nc1-c1ccc(Cl)c(Cl)c1)C(=O)O
≥ 100 µM	N#C/C(=C\c1c[nH]nc1-c1cccc(C(F)(F)F)c1)C(=O)O

Same assay, conditions: buffer, pH 7.4, 24 h

Kinetic_solubility	Compound
4.8 µM	CCOC(=O)/C(C#N)=C/c1c[nH]nc1-c1ccc(Cl)c(Cl)c1
0.2 µM	N#C/C(=C\c1c[nH]nc1-c1cccc(Br)c1)C(=O)O
22 µM	N#C/C(=C\c1c[nH]nc1-c1cc(Br)cc(Br)c1)C(=O)O
24.4 µM	CC(C)(C)OC(=O)/C(C#N)=C/c1c[nH]nc1-c1cccc(C(F)(F)F)c1

Test system: not listed separately
Assay: Inhibition of mitochondrial pyruvate carrier in C57BL/6J mouse cardiac mitochondria assessed as inhibition of pyruvate/malate-induced mitochondrial respiration by steady-state ADP coupled assay
Design: species or system Heart
Details: not given

EC50	Compound
568 nM	COc1ccccc1-c1n[nH]cc1/C=C(\C#N)C(=O)O
504 nM	N#C/C(=C\c1c[nH]nc1-c1cc(Cl)ccc1Cl)C(=O)O
1080 nM	N#C/C(=C\c1c[nH]nc1-c1ccc(Cl)cc1Cl)C(=O)O
444 nM	N#C/C(=C\c1c[nH]nc1-c1cccc(Br)c1)C(=O)O
651 nM	N#C/C(=C\c1c[nH]nc1-c1ccc(F)cc1)C(=O)O
659 nM	Cc1ccccc1-c1n[nH]cc1/C=C(\C#N)C(=O)O
659 nM	COc1ccc(-c2n[nH]cc2/C=C(\C#N)C(=O)O)c(F)c1
107 nM	N#C/C(=C\c1c[nH]nc1-c1ccc(Cl)c(Cl)c1)C(=O)O
796 nM	N#C/C(=C\c1c[nH]nc1-c1ccc(Cl)cc1)C(=O)O
516 nM	N#C/C(=C\c1c[nH]nc1-c1ccccc1Cl)C(=O)O
650 nM	N#C/C(=C\c1c[nH]nc1-c1cccc(Cl)c1)C(=O)O
550 nM	Cc1cccc(-c2n[nH]cc2/C=C(\C#N)C(=O)O)c1
785 nM	N#C/C(=C\c1c[nH]nc1-c1cccc(F)c1)C(=O)O
344 nM	N#C/C(=C\c1c[nH]nc1-c1ccc(Br)cc1)C(=O)O
927 nM	COc1cccc(-c2n[nH]cc2/C=C(\C#N)C(=O)O)c1
810 nM	N#C/C(=C\c1c[nH]nc1-c1ccc(F)c([N+](=O)[O-])c1)C(=O)O
791 nM	N#C/C(=C\c1c[nH]nc1-c1ccccc1F)C(=O)O
568 nM	COc1ccc(-c2n[nH]cc2/C=C(\C#N)C(=O)O)cc1F

Second part, the compound before the results:

Compound	EC50
N#C/C(=C\c1c[nH]nc1-c1ccc(-c2ccccc2)cc1)C(=O)O	919 nM
N#C/C(=C\c1c[nH]nc1-c1cc2ccccc2s1)C(=O)O	552 nM
CCOC(=O)/C(C#N)=C/c1c[nH]nc1-c1ccc(Cl)c(Cl)c1	3890 nM
N#C/C(=C\c1c[nH]nc1-c1cccc2ccccc12)C(=O)O	273 nM
COc1ccc(-c2n[nH]cc2/C=C(\C#N)C(=O)O)cc1	795 nM
N#C/C(=C\c1c[nH]nc1-c1ccc2ccccc2c1)C(=O)O	212 nM
N#C/C(=C\c1c[nH]nc1-c1cc(Br)cc(Br)c1)C(=O)O	70 nM
CC(C)(C)OC(=O)/C(C#N)=C/c1c[nH]nc1-c1cccc(C(F)(F)F)c1	12000 nM
N#C/C(=C\c1c[nH]nc1-c1ccccc1)C(=O)O	796 nM
N#C/C(=C\c1c[nH]nc1-c1ccc2c(c1)OCO2)C(=O)O	435 nM
N#C/C(=C\c1c[nH]nc1-c1cc(C(F)(F)F)cc(C(F)(F)F)c1)C(=O)O	165 nM
COc1ccc(-c2n[nH]cc2/C=C(\C#N)C(=O)O)cc1OC	808 nM
N#C/C(=C\c1cn(Cc2ccccc2)nc1-c1ccc2ccccc2c1)C(=O)O	1290 nM
N#C/C(=C\c1c[nH]nc1-c1ccc(C(F)(F)F)cc1)C(=O)O	543 nM
CS(=O)(=O)c1ccc(-c2n[nH]cc2/C=C(\C#N)C(=O)O)cc1	18300 nM
CCn1cc(/C=C(\C#N)C(=O)O)c(-c2ccc(Cl)c(Cl)c2)n1	390 nM
N#C/C(=C\c1c[nH]nc1-c1cccc(C(F)(F)F)c1)C(=O)O	108 nM
CCc1ccc(-c2n[nH]cc2/C=C(\C#N)C(=O)O)cc1	614 nM
N#C/C(=C\c1cn(-c2ccccc2)nc1-c1cccc2ccccc12)C(=O)O	707 nM
N#C/C(=C\c1c[nH]nc1-c1ccccc1C(F)(F)F)C(=O)O	258 nM
N#C/C(=C\c1cn(-c2ccccc2)nc1-c1ccc(Cl)c(Cl)c1)C(=O)O	369 nM
N#C/C(=C\c1c[nH]nc1-c1ccc([N+](=O)[O-])cc1)C(=O)O	4120 nM
CC(C)(C)OC(=O)/C(C#N)=C/c1c[nH]nc1-c1ccc(Cl)c(Cl)c1	8710 nM
N#C/C(=C\c1cn(Cc2ccccc2)nc1-c1ccc(Cl)c(Cl)c1)C(=O)O	722 nM
N#C/C(=C\c1cn(-c2ccccc2)c2ccccc12)C(=O)O	241 nM
N#C/C(=C\c1cn(-c2ccccc2)nc1-c1ccc2ccccc2c1)C(=O)O	789 nM
N#C/C(=C\c1c[nH]nc1-c1cccnc1)C(=O)O	7770 nM
CC(C)(C)c1ccc(-c2n[nH]cc2/C=C(\C#N)C(=O)O)cc1	447 nM
N#C/C(=C\c1c[nH]nc1-c1cccs1)C(=O)O	374 nM

Target: T1, Peroxisome proliferator-activated receptor gamma (Homo sapiens, UniProt P37231)
T1 sequence (P37231 whole entry): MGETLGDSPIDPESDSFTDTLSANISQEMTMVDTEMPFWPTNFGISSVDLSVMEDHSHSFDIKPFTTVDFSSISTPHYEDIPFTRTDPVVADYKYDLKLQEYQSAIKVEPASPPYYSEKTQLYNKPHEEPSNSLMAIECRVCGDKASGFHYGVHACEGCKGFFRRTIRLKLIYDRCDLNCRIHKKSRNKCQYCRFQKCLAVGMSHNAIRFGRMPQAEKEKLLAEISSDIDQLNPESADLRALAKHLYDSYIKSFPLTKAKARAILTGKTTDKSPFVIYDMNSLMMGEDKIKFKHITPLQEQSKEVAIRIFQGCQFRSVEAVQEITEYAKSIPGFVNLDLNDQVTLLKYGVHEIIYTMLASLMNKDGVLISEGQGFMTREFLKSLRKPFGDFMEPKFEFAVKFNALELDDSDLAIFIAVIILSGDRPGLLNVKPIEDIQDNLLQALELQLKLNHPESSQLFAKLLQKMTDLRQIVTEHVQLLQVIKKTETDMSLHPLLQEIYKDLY
Assay: Agonist activity at Gal4-fused PPAR-gamma (unknown origin) transfected in mouse C2C12 cells assessed as decrease in luciferase activity at 0.2 to 20 uM measured after 24 hrs by Dual-Glo Luciferase assay
Type: toxicity, cell-based
Details: c2c12, 24 h, dose 0.2-20 µM

Compound	Activity
N#C/C(=C\c1c[nH]nc1-c1ccc2ccccc2c1)C(=O)O	Not_active
N#C/C(=C\c1c[nH]nc1-c1ccc(Cl)c(Cl)c1)C(=O)O	Not_active
N#C/C(=C\c1c[nH]nc1-c1cc(Br)cc(Br)c1)C(=O)O	Not_active
N#C/C(=C\c1c[nH]nc1-c1cccc(C(F)(F)F)c1)C(=O)O	Not_active

Target: T1, Peroxisome proliferator-activated receptor gamma
Assay: Agonist activity at Gal4-fused PPAR-gamma (unknown origin) transfected in mouse C2C12 cells assessed as decrease in luciferase activity at 10 uM measured after 24 hrs by Dual-Glo Luciferase assay
Type: toxicity, cell-based
Details: c2c12, 24 h

Compound	Activity
CN(CCOc1ccc(CC2SC(=O)NC2=O)cc1)c1ccccn1 (stereo not given) [ROSIGLITAZONE]	Active

Test system: not listed separately
Assay: Half life in human liver microsomes at 1 uM in presence of NADPH by LC-MS/MS analysis
Type: ADME, Microsome
Details: not given

t1/2	Compound
> 120 min	N#C/C(=C\c1c[nH]nc1-c1cccc(Br)c1)C(=O)O
> 120 min	N#C/C(=C\c1c[nH]nc1-c1ccc(Cl)c(Cl)c1)C(=O)O

Continued, compound first:

Compound	t1/2
CCOC(=O)/C(C#N)=C/c1c[nH]nc1-c1ccc(Cl)c(Cl)c1	1.8 min
N#C/C(=C\c1c[nH]nc1-c1ccc2ccccc2c1)C(=O)O	68.8 min
N#C/C(=C\c1c[nH]nc1-c1cc(Br)cc(Br)c1)C(=O)O	15.4 min
CC(C)(C)OC(=O)/C(C#N)=C/c1c[nH]nc1-c1cccc(C(F)(F)F)c1	> 120 min
N#C/C(=C\c1c[nH]nc1-c1cccc(C(F)(F)F)c1)C(=O)O	> 120 min

Test system: not listed separately
Assay: Intrinsic clearance in human liver microsomes at 1 uM in presence of NADPH by LC-MS/MS analysis
Type: ADME, Microsome
Details: not given

Intrinsic clearance	Compound
3 µL/mg/min	N#C/C(=C\c1c[nH]nc1-c1cccc(Br)c1)C(=O)O
3 µL/mg/min	N#C/C(=C\c1c[nH]nc1-c1ccc(Cl)c(Cl)c1)C(=O)O

Second part, the compound before the results:

Compound	Intrinsic clearance
CCOC(=O)/C(C#N)=C/c1c[nH]nc1-c1ccc(Cl)c(Cl)c1	377 µL/mg/min
N#C/C(=C\c1c[nH]nc1-c1ccc2ccccc2c1)C(=O)O	10 µL/mg/min
N#C/C(=C\c1c[nH]nc1-c1cc(Br)cc(Br)c1)C(=O)O	45 µL/mg/min
CC(C)(C)OC(=O)/C(C#N)=C/c1c[nH]nc1-c1cccc(C(F)(F)F)c1	2 µL/mg/min
N#C/C(=C\c1c[nH]nc1-c1cccc(C(F)(F)F)c1)C(=O)O	3 µL/mg/min

Test system: LX-2
Assay: Inhibition of hepatic stellate cell activation in human LX-2 cells assessed as inhibition of TGF-beta-stimulated FN1 gene expression at 10 uM quantitative real-time PCR analysis
Type: functional, cell-based
Details: not given

Compound	inhibition
N#C/C(=C\c1c[nH]nc1-c1ccc2ccccc2c1)C(=O)O	Active
N#C/C(=C\c1c[nH]nc1-c1ccc(Cl)c(Cl)c1)C(=O)O	Active
